The values that follow are results of earlier work, collected in patent US20070293937A1, “Endoluminal medical device for local delivery of cathepsin inhibitors, method of making and treating” (MED Institute, Inc., priority 2006, published 2007).

Series [1] has as its target cathepsin C (Homo sapiens, UniProt P53634). Particulars: natural inhibitors.
Series [2] deals with cathepsin C. Particulars: Tompson et al.
A further series concerns purified cathepsin C. Particulars: as found by Kam et al.
The test system of series [3] is cathepsin C. Particulars: Green and Shaw, J. Biol. Chem. 1981.

pKi: −log10 of the molar value. Where a SMILES comes first, the peptide text is derived from it. The star is where a group is joined. CHN2 = [N-]=[N+]=C*

cathepsin C (Homo sapiens, UniProt P53634), sequence (P53634 25-463, species assumed): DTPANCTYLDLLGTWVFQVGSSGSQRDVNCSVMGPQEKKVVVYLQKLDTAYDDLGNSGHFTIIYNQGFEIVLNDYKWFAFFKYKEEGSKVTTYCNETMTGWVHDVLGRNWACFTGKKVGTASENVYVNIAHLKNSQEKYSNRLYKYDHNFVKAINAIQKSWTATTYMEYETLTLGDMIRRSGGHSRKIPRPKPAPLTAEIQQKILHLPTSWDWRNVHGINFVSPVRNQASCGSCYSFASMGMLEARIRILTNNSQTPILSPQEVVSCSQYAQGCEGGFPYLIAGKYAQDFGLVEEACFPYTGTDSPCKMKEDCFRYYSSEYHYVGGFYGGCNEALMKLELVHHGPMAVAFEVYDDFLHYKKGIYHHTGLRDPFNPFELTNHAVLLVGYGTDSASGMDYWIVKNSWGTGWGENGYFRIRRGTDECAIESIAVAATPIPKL

For the compound `CC(C)C[C@H](NC(=O)[C@H]1O[C@@H]1C(=O)O)C(=O)NCCCCN=C(N)N` [Compound E-64, E-64], the “inhibition of cathepsin C (in words)” value on cathepsin C [1] is listed as “inhibit cathepsin C at high inhibitor concentrations”. As to `N#CC(Cc1ccccc1)NC(=O)CN` (stereo not shown) [Gly-NHCH(CH2Ph)CN], the pKi on cathepsin C [2] (reversible nitrile inhibitor, J. Med. Chem. 1986, read-out: Kl value) is 5.57. In the case of `[N-]=[N+]=CC(=O)[C@H](Cc1ccccc1)NC(=O)CN` [Gly-Phe-CHN2] (H-Gly-Phe-CHN2), the “inhibition of cathepsin C (in words)” value in the series with purified cathepsin C is “potent inhibitor”. Besides, in the series on cathepsin C [3], the “kobs/[l]” value was 10^4 M^−1 s^−1. Regarding `CS(=O)(=O)C=CC(Cc1ccccc1)NC(=O)CN` (stereo not drawn) [Gly-Phe-VS—CH3], in the series with cathepsin C [2] (J. Med. Chem. 1986), the k2/Kl was 56 M⁻¹ s⁻¹.

Turning to `CC(=O)N[C@@H](CC(C)C)C(=O)N[C@@H](CC(C)C)C(=O)N[C@H](C=O)CCCNC(=N)N` [leupeptin], on cathepsin C [1], the “inhibition of cathepsin C (in words)” value is given as “inhibit cathepsin C at high inhibitor concentrations”.

In the case of cystatin, the “inhibition of cathepsin C (in words)” value on cathepsin C [1] was “inhibit cathepsin C at high inhibitor concentrations”.
